Some test systems named below: SK-MEL-2 melanoma; CAKI-1 renal; KM12 colon; SNB-75 CNS; HL-60(TB) leukemia; RPMI-8226 leukemia; EKVX NSCLC; M14 melanoma.
What all share (assay): NCI-60 cell line screen, 48 h

Where “and” joins values, the source holds several entries; their conditions need not be identical. Identical values can stand only once.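 Method: 48-hour compound exposure of cells in 96-well plates, five concentrations, linear interpolation of endpoints. GI50: concentration for 50% inhibition of growth. At the TGI there is no net growth.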

Regarding `COc1ccc(/C=C/C(=O)c2cc3c(N)c(C(=O)Nc4ccccc4C)sc3nc2C)cc1`, the GI50 was 0.387 µM with SK-MEL-2 melanoma; 0.392 µM in the test with CAKI-1 renal; 1.07 µM in the test with KM12 colon; 0.17 µM in the test with SNB-75 CNS; 0.239 µM with HL-60(TB) leukemia; 1.4 µM in the test with RPMI-8226 leukemia. Also, in the test with EKVX NSCLC, the GI50 is 1.88 µM. In addition, the TGI was above 50 µM in the test with SK-MEL-2 melanoma; above 50 µM with CAKI-1 renal; 4.8 µM in the test with KM12 colon; 1.85 µM in the test with SNB-75 CNS; 1.99 µM with HL-60(TB) leukemia; above 25.5 µM with RPMI-8226 leukemia. In addition, in the test with EKVX NSCLC, the TGI is above 50 µM.

On to `CCN(CC)CCOc1ccc2c(c1)C(=O)c1cc(OCCN(CC)CC)ccc1-2`, for which the GI50 is 11.3 µM in the test with SK-MEL-2 melanoma; 30.2 µM in the test with CAKI-1 renal; 5.36 µM in the test on KM12 colon; 14 µM with M14 melanoma; 12.2 µM with SNB-75 CNS; 3.04 µM in the test on HL-60(TB) leukemia. Moreover, the GI50 with EKVX NSCLC is 20 µM. In addition, the TGI is 24.4 µM with SK-MEL-2 melanoma; above 100 µM in the test with CAKI-1 renal; 24.9 µM with KM12 colon; 27.1 µM in the test on M14 melanoma; 24.9 µM with SNB-75 CNS; 17.5 µM in the test with HL-60(TB) leukemia. The TGI in the test with EKVX NSCLC turned out to be 63.6 µM.

With `CNC(=O)OC1C(O[C@H]2C[C@H]3[C@@H]4CC=C5C[C@@H](O)CC[C@]5(C)[C@H]4CC[C@]3(C)[C@H]2[C@H](C)C(=O)CCC(C)C)OCC(O)C1OC1OCC(O)C(O)C1OC(=O)c1ccc(OC)cc1` (stereo partly drawn), the GI50 is 0.00933 µM with SK-MEL-2 melanoma; 0.0676 µM in the test on CAKI-1 renal; 0.106 µM in the test with KM12 colon; 0.0137 µM with M14 melanoma; 0.00628 µM in the test on SNB-75 CNS; below 0.00275 µM with RPMI-8226 leukemia. Moreover, the GI50 with EKVX NSCLC was 0.0396 µM. Besides, the TGI was 0.324 µM in the test on SK-MEL-2 melanoma; 1.04 µM in the test with CAKI-1 renal; 4.97 µM with KM12 colon; 0.0757 µM in the test with M14 melanoma; 4.97 µM with SNB-75 CNS; 0.0112 µM in the test with RPMI-8226 leukemia. In the test on EKVX NSCLC, this molecule showed a TGI of 3.47 µM.

As for `CN1CCN(c2ccc(NC3=C(Cl)C(=O)c4ncccc4C3=O)cc2C#N)CC1`, the GI50 in the test with SK-MEL-2 melanoma is 2.26 µM; with CAKI-1 renal, 1.09 µM; in the test with KM12 colon it was 10.8 µM; in the test with M14 melanoma it was 1.74 µM; in the test with SNB-75 CNS, 11.7 µM; with HL-60(TB) leukemia, 0.316 µM. Also, the GI50 with EKVX NSCLC was 2.78 µM. For the same molecule, the TGI was 4.69 µM in the test on SK-MEL-2 melanoma; 2.31 µM in the test on CAKI-1 renal; 25.4 µM in the test on KM12 colon; 3.57 µM in the test with M14 melanoma; 24.8 µM in the test on SNB-75 CNS; 1.24 µM with HL-60(TB) leukemia. In the test with EKVX NSCLC, this molecule came in with a TGI of 8.72 µM.

As for `Oc1c(I)cc(-c2nc3ccccc3s2)cc1CN(Cc1ccccn1)Cc1ccccn1`, the GI50 was 0.362 µM in the test with SK-MEL-2 melanoma; 0.413 µM in the test with CAKI-1 renal; 0.4 µM in the test with KM12 colon; 0.357 µM in the test with M14 melanoma; 0.323 µM with HL-60(TB) leukemia; 0.385 µM with RPMI-8226 leukemia. In the test with EKVX NSCLC, the GI50 was 0.321 µM. The TGI with SK-MEL-2 melanoma is 17.8 µM; in the test on CAKI-1 renal, 2.47 µM; in the test on KM12 colon, 17.4 µM; in the test with M14 melanoma it was 13.1 µM; with HL-60(TB) leukemia, above 100 µM; in the test with RPMI-8226 leukemia, 3.03 µM. Also, the TGI in the test on EKVX NSCLC is above 100 µM.

Take `C=CCC(N[C@H](CO)c1ccccc1)c1cn(S(=O)(=O)c2ccc(C)cc2)c2ccccc12` (stereo partly drawn): the GI50 in the test with SK-MEL-2 melanoma was 32.2 µM; in the test on CAKI-1 renal it was 11.5 µM; in the test on KM12 colon it was 19.8 µM; in the test on M14 melanoma, 14.5 µM; with SNB-75 CNS it was 66.2 µM; in the test with RPMI-8226 leukemia, 6.85 µM. Further, the GI50 with EKVX NSCLC was 25.2 µM. Besides, the TGI is above 100 µM in the test on SK-MEL-2 melanoma; 37.3 µM in the test on CAKI-1 renal; 68.4 µM in the test with KM12 colon; 31.5 µM in the test on M14 melanoma; above 100 µM in the test on SNB-75 CNS; 46.2 µM with RPMI-8226 leukemia. In addition, the TGI with EKVX NSCLC was determined as 74.8 µM.

Consider `O=C(NNS(=O)(=O)c1ccc(F)cc1)c1cccnc1Nc1ccc(Cl)cc1Cl`, for which the GI50 in the test with SK-MEL-2 melanoma is 42.3 µM; with CAKI-1 renal, 31.2 µM; with KM12 colon, 23 µM; in the test on M14 melanoma it was 46.5 µM; with SNB-75 CNS, 25.5 µM; with HL-60(TB) leukemia, 25.2 µM. In addition, in the test with EKVX NSCLC, the GI50 is 29.5 µM. Also, the TGI is above 100 µM in the test on SK-MEL-2 melanoma; above 100 µM in the test on CAKI-1 renal; 48.5 µM in the test with KM12 colon; above 100 µM with M14 melanoma; above 100 µM in the test with SNB-75 CNS; 62.3 µM in the test with HL-60(TB) leukemia. In the test with EKVX NSCLC, the TGI was above 100 µM.

With `Cc1cc(C)cc(Nc2ccc([N+](=O)[O-])c(NCCN3CCOCC3)n2)c1`, the TGI in the test with SK-MEL-2 melanoma was above 100 µM; in the test with CAKI-1 renal it was above 100 µM; with KM12 colon it was above 100 µM; in the test with HL-60(TB) leukemia it was 0.00926 µM; in the test on RPMI-8226 leukemia it was above 100 µM; in the test on EKVX NSCLC, above 100 µM. For the same molecule, the GI50 is 0.00163 µM with CAKI-1 renal; 0.000947 µM in the test on KM12 colon; 0.00162 µM with M14 melanoma; 0.00261 µM with HL-60(TB) leukemia; 0.00455 µM and 0.0366 µM with RPMI-8226 leukemia.

On to `O=C(O)c1cc(Cc2ccc(O)c(C(=O)O)c2)ccc1O` (tested in a mixture with another compound), for which the GI50 was 1.36 µM with CAKI-1 renal; 4.39 µM with KM12 colon; 5.28 µM in the test on M14 melanoma; 3.32 µM with SNB-75 CNS; 2.62 µM in the test with RPMI-8226 leukemia; 4.82 µM in the test on EKVX NSCLC. The TGI is 3.69 µM in the test with CAKI-1 renal; 19.1 µM in the test on KM12 colon; 21.8 µM in the test on M14 melanoma; 22.4 µM in the test with SNB-75 CNS; above 100 µM in the test on RPMI-8226 leukemia; 18 µM with EKVX NSCLC.

For `C1=C(c2ccccc2)SC=C(c2ccccc2)S1`, the TGI in the test with CAKI-1 renal is above 100 µM; with KM12 colon it was above 100 µM; with M14 melanoma, above 100 µM; in the test with SNB-75 CNS it was 64 µM; in the test on HL-60(TB) leukemia it was above 100 µM; in the test on RPMI-8226 leukemia, above 100 µM. Also, the TGI in the test with EKVX NSCLC was above 100 µM.
